{PEG40k} = 40 kDa polyethylene glycol; [invdT] = inverted (3'-3') thymidine; [HEG] = hexaethylene glycol spacer
How the values were obtained:
rat PDGF-BB = target: T1, rat PDGF-BB (Rattus norvegicus, UniProt Q05028); assay: Cell migration assay, 3T3 cells; assay type: cell-based; conditions: 100 nM aptamer, 5 nM PDGF BB, 24 well format
T1 construct: purchased PeproTech, Rocky Hill, N.J
Description: PDGF is a strong mitogen as well as a chemoattractant. […] In the cell migration assay 80,000 cells 3T3 rat fibroblasts (ATCC, Manassas, Va.) or RPE (retinal pigmented epithelial) cells (ATCC, Manassas, Va.) were plated per well into a 24 well plate with 8 micron filters (BD Biosciences, Discovery Labware, Bedford, Mass.). 0.5 ml DMEM/0.2% FCS was added to the top chamber and 0.8 ml DMEM/0.2% FCS was added to the bottom chamber. The system was equilibrated by incubating for 4 hours at 37 degrees celsius. Human PDGF-BB (PeproTech, Rocky Hill, N.J.) (for RPE cells) or rat PDGF-BB (PeproTech) (for 3T3 cells) was added to the bottom chamber (0 ng/ml-100 ng/ml final concentration). The system was incubated 4 hours to 12 hours. Cells were scraped off on the top of filter with a Q-tip. The cells that migrated to the bottom of the filter were fixed with a mixture of cold 50% Methanol/50% Acetone for 3 minutes.
Following incubation filters were washed with 1×PBS and stained with Giemsa Stain (Matheson Coleman and Bell) for 1-2 hours and migration was visualized by taking pictures on a Zeiss Axiovert 200M microscope.

PDGF BB = PDGF BB (Homo sapiens, UniProt P01127); assay: 3T3 cell proliferation assay (PDGF-BB induced); assay type: cell-based, rat; parameters: purchased PeproTech, Rocky Hill, N.J
Description: 3T3 cells, a rat fibroblast cell line (ATCC, Manassas, Va.), were plated 3,000 cells/well in a 96 well plate one day prior to the start of the assay in 100 ul DMEM/10% FCS. The following day, cells were washed once with straight DMEM and then 75 ul DMEM/0.8% FCS was added to each well. […] Cells were incubated for 3 days. Following incubation 10 ul MTT (Promega, Madison, Wis.) was added to each well and incubated for an additional 1.5 hours. Media was then removed, 200 ul Isopropanol (2-propanol) was added to each well, cells were re-suspended thoroughly and absorbance at 570 nm was read on a 96 well plate reader.
(§1) 3T3 cells, which are derived from a rat fibroblast cell line (ATCC, Manassas, Va.), were used in a proliferation assay to test potency of modified ARC513 aptamers. 3T3 fibroblast cells have PDGF receptors on their cell-surface and respond to mitogen, e.g., PDGF stimulation by proliferation. The assay was performed as follows: 3T3 cells were plated 3,000 cells/well in a 96 well plate one day prior to the start of the assay in 100 ul DMEM/10% FCS. The following day, cells were washed once with straight DMEM and then 75 ul DMEM/0.8% FCS was added to each well. Then 25 ul of PDGF-BB (PeproTech, Rocky Hill, N.J.) at a 50 ng/ml final concentration was added to each well +/− aptamer condition to be tested. […] The functional PDGF aptamer dilutions usually consisted of 6 points in 2-fold serial dilutions.
Cells were incubated for 3 days. Following incubation 10 ul MTT (Promega, Madison, Wis.) was added to each well and incubated for an additional 1.5 hours. Media was removed, 200 μl Isopropanol (2-propanol) was added to each well, cells were re-suspended thoroughly and absorbance at 570 nm was read on a 96 well plate reader. The present example depicts the potency comparison of PDGF aptamer ARC: 513 to that of ARC 513 variants.
The 3T3 proliferation assay previously described was used to test potency of all PEG conjugated ARC513 variants described immediately above. The assay was performed as follows: 3T3 cells were plated 3,000 cells/well in a 96 well plate one day prior to the start of the assay in 100 ul DMEM/10% FCS. The following day, cells were washed once with straight DMEM and then 75 ul DMEM/0.8% FCS was added to each well. Then 25 ul of PDGF-BB (PeproTech, Rocky Hill, N.J.) at a 50 ng/ml final concentration was added to each well +/− aptamer condition to be tested. […] The functional PDGF aptamer dilutions usually consisted of 6 points in 2-fold serial dilutions.
Cells were incubated for 3 days. Following incubation 10 ul MTT (Promega, Madison, Wis.) was added to each well and incubated for an additional 1.5 hours. Media was removed, 200 μl Isopropanol (2-propanol) was added to each well, cells were re-suspended thoroughly and absorbance at 570 nm was read on a 96 well plate reader. The present example depicts the potency comparison of PDGF aptamer ARC513 to that of PEGylated ARC513 aptamers.
as §1, with “3T3” for “3T3 cells, which are derived from a rat fibroblast cell line (ATCC, Manassas, Va.), were used in a proliferation assay to test potency of modified ARC513 aptamers. 3T3”, “100 μl” for “100 ul”
Cells were incubated for 3 days. Following incubation 10 ul MTT (Promega, Madison, Wis.) was added to each well and incubated for an additional 1.5 hours. Media was removed, […] Isopropanol (2-propanol) was added to each well, cells were re-suspended thoroughly and absorbance at 570 nm was read on a 96 well plate reader.

Sequence of PDGF BB (P01127 82-190 limits assumed): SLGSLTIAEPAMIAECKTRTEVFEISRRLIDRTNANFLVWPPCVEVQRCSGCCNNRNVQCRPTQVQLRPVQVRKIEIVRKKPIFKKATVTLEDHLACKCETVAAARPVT
T1 sequence (Q05028 66-174 limits assumed): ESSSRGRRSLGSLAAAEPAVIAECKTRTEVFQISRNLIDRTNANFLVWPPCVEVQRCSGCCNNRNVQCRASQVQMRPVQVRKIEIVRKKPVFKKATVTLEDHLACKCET

Row | Substance | migration of 3T3 cells (rat PDGF-BB) | effect on 3T3 cell proliferation (PDGF BB; scrambled control) | concentration reducing the PDGF driven increase in proliferation to background levels (PDGF BB) | potency compared to PDGF neutralizing polyclonal antibody (PDGF BB) | potency of legacy aptamers vs newly synthesized (PDGF BB; after lyophilization and storage at −20 degrees celsius for 2 years) | effect of 5′ conjugation to 30 kDa and 40 kDa PEG groups on in vitro activity (PDGF BB; relative to ARC126)
1 | 5′-(SEQ ID NO.4)-HEG-(SEQ ID NO:5)-HEG-(SEQ ID NO:6)-3 (chain 1 CAGCGUACG; chain 2 CGTACCGATUCA; chain 3 TGAAGCUG; HEG spacers joining pieces; synthetic aptamer; modified_base (4)..(4) cytidine is 2′-fluoro; modified_base (5)..(5) gm; modified_base (6)..(6) uridine is 2′-fluoro; modified_base (8)..(8) cytidine is 2′-fluoro; modified_base (9)..(9) gm; modified_base (7)..(7) gm; modified_base (10)..(10) uridine is 2′-fluoro; modified_base (11)..(11) cytidine is 2′-fluoro; modified_base (12)..(12) adenosine is 2′-O-Methyl; modified_base (6)..(6) cytidine is 2′-fluoro; modified_base (7)..(7) uridine is 2′-fluoro; modified_base (8)..(8) gm) [ARC128, reference compound] | no activity | never displays an effect |  |  |  | 
2 | 5′-[40 K PEG]-(SEQ ID NO:1)-HEG-(SEQ ID NO:2)-HEG-(SEQ ID NO:3)-3′-dT-3′ (chain 1 CAGGCUACG; chain 2 CGTAGAGCAUCA; chain 3 TGATCCUG; piece 1: 2'-fluoro at 6, 8, 2'-O-methyl at 9, 5' {PEG40k}, 3' [HEG], other sugars and backbone not given here; piece 2: 2'-O-methyl at 5, 7, 12, 2'-fluoro at 10, 11, 3' [HEG], other sugars and backbone not given here; piece 3: 2'-fluoro at 5, 6, 7, 2'-O-methyl at 8, 3' [invdT], other sugars and backbone not given here) [ARC127] | inhibits the effects of 5 nM PDGF-BB |  | 30 nM | better potency | just as potent | does not significantly reduce the in vitro activity

Reference: patent US20090053138A1, “Stabilized Aptamers to Platelet Derived Growth Factor and their Use as Oncology Therapeutics” (priority 2002, published 2009)
